Results from the NIST ThermoML archive (doi:10.1021/je0601457).

Assay: xn = mol fraction of the nth substance listed

c1cnccn1 [pyrazine] + O=C=O
Fluid (supercritical or subcritical phases), Linear displacement technique
Conditions	mass density [kg/m3]
294.25 K, 5340 kPa, x1 = 0.308	1054
294.25 K, 9480 kPa, x1 = 0.308	1070
294.25 K, 12170 kPa, x1 = 0.308	1078
295.55 K, 6450 kPa, x1 = 0.019	854
295.55 K, 7000 kPa, x1 = 0.019	877
295.55 K, 9070 kPa, x1 = 0.019	915
295.65 K, 5520 kPa, x1 = 0.146	887
295.65 K, 5970 kPa, x1 = 0.074	926
295.65 K, 6100 kPa, x1 = 0.074	929
295.65 K, 6310 kPa, x1 = 0.074	941
295.65 K, 6380 kPa, x1 = 0.116	815
295.65 K, 6520 kPa, x1 = 0.146	898
295.65 K, 8210 kPa, x1 = 0.116	833
295.65 K, 12790 kPa, x1 = 0.146	926
296.25 K, 6140 kPa, x1 = 0.09	873
296.25 K, 9830 kPa, x1 = 0.09	923
298.25 K, 6590 kPa, x1 = 0.015	863
298.25 K, 7520 kPa, x1 = 0.015	892
298.25 K, 8790 kPa, x1 = 0.015	918
299.45 K, 7760 kPa, x1 = 0.224	921
300.75 K, 6520 kPa, x1 = 0.177	894
300.75 K, 7070 kPa, x1 = 0.177	898
300.75 K, 10790 kPa, x1 = 0.177	917
303.65 K, 7070 kPa, x1 = 0.074	903
303.65 K, 8720 kPa, x1 = 0.074	924
303.75 K, 7480 kPa, x1 = 0.015	828
303.75 K, 9410 kPa, x1 = 0.015	898
303.75 K, 10240 kPa, x1 = 0.015	917
303.75 K, 12450 kPa, x1 = 0.015	956
304.15 K, 7690 kPa, x1 = 0.019	791
304.15 K, 8380 kPa, x1 = 0.019	826
304.15 K, 9210 kPa, x1 = 0.019	849
304.15 K, 10520 kPa, x1 = 0.019	876
304.15 K, 11900 kPa, x1 = 0.019	898
304.25 K, 7340 kPa, x1 = 0.116	798
304.25 K, 7550 kPa, x1 = 0.116	801
304.25 K, 9550 kPa, x1 = 0.116	816
304.95 K, 7280 kPa, x1 = 0.308	1036
304.95 K, 9690 kPa, x1 = 0.308	1041
304.95 K, 13620 kPa, x1 = 0.308	1052
305.75 K, 6930 kPa, x1 = 0.146	839
305.75 K, 7280 kPa, x1 = 0.146	863
305.75 K, 11690 kPa, x1 = 0.146	886
305.85 K, 7340 kPa, x1 = 0.09	858
305.85 K, 10170 kPa, x1 = 0.09	884
306.35 K, 6520 kPa, x1 = 0.397	1049
306.35 K, 9690 kPa, x1 = 0.397	1061
306.35 K, 13690 kPa, x1 = 0.397	1070
308.25 K, 7550 kPa, x1 = 0.074	882
308.25 K, 9480 kPa, x1 = 0.074	906
308.65 K, 6030 kPa, x1 = 0.495	999
308.65 K, 7000 kPa, x1 = 0.495	1001
308.65 K, 9240 kPa, x1 = 0.495	1008
309.45 K, 7070 kPa, x1 = 0.177	872
309.45 K, 7620 kPa, x1 = 0.177	874
309.45 K, 9760 kPa, x1 = 0.177	884
312.05 K, 9480 kPa, x1 = 0.224	899
312.05 K, 9760 kPa, x1 = 0.015	778
312.05 K, 9930 kPa, x1 = 0.015	787
312.05 K, 10410 kPa, x1 = 0.015	812
312.05 K, 11100 kPa, x1 = 0.015	835
312.05 K, 16790 kPa, x1 = 0.224	919
312.75 K, 7760 kPa, x1 = 0.308	1023
312.75 K, 11690 kPa, x1 = 0.308	1033
312.75 K, 14830 kPa, x1 = 0.308	1043
313.55 K, 8450 kPa, x1 = 0.116	773
313.55 K, 8790 kPa, x1 = 0.116	778
313.55 K, 10860 kPa, x1 = 0.116	791
313.65 K, 9030 kPa, x1 = 0.019	687
313.65 K, 9140 kPa, x1 = 0.019	712
313.65 K, 9830 kPa, x1 = 0.019	761
313.65 K, 10450 kPa, x1 = 0.019	792
313.65 K, 10860 kPa, x1 = 0.019	809
313.65 K, 12520 kPa, x1 = 0.019	850
314.85 K, 8240 kPa, x1 = 0.146	833
314.85 K, 8860 kPa, x1 = 0.146	839
314.85 K, 14240 kPa, x1 = 0.146	869
314.95 K, 7830 kPa, x1 = 0.397	1040
314.95 K, 11280 kPa, x1 = 0.397	1048
314.95 K, 15140 kPa, x1 = 0.397	1060
315.85 K, 8660 kPa, x1 = 0.09	813
318.95 K, 9210 kPa, x1 = 0.015	512
318.95 K, 9280 kPa, x1 = 0.015	527
318.95 K, 9480 kPa, x1 = 0.015	571
320.15 K, 9140 kPa, x1 = 0.09	806
320.15 K, 10790 kPa, x1 = 0.09	830
320.95 K, 9660 kPa, x1 = 0.224	877
320.95 K, 13000 kPa, x1 = 0.224	889
321.55 K, 9280 kPa, x1 = 0.177	839
321.55 K, 10520 kPa, x1 = 0.177	847
321.55 K, 12520 kPa, x1 = 0.177	857

linear displacement
Conditions	mass density [kg/m3]
294.25 K, Liquid, x1 = 0.308	1048
295.55 K, Liquid, x1 = 0.019	842
295.65 K, Liquid, x1 = 0.074	922
295.65 K, Liquid, x1 = 0.116	809
295.65 K, Liquid, x1 = 0.146	887
296.25 K, Liquid, x1 = 0.09	864
298.25 K, Liquid, x1 = 0.015	857
299.45 K, Liquid, x1 = 0.224	910
300.75 K, Liquid, x1 = 0.177	889
303.65 K, Liquid, x1 = 0.074	900
303.75 K, Liquid, x1 = 0.015	802
304.15 K, Liquid, x1 = 0.019	776
304.25 K, Liquid, x1 = 0.116	795
304.95 K, Liquid, x1 = 0.308	1028
305.75 K, Liquid, x1 = 0.146	860
305.85 K, Liquid, x1 = 0.09	854
306.35 K, Liquid, x1 = 0.397	1042
308.25 K, Liquid, x1 = 0.074	878
308.65 K, Liquid, x1 = 0.495	992
309.45 K, Liquid, x1 = 0.177	870
312.05 K, Liquid, x1 = 0.015	656
312.05 K, Liquid, x1 = 0.224	887
312.75 K, Liquid, x1 = 0.308	1019
313.55 K, Liquid, x1 = 0.116	771
313.65 K, Liquid, x1 = 0.019	679
314.85 K, Liquid, x1 = 0.146	830
314.95 K, Liquid, x1 = 0.397	1037
315.85 K, Liquid, x1 = 0.09	810
318.95 K, Gas, x1 = 0.015	452
320.15 K, Liquid, x1 = 0.09	799
320.95 K, Liquid, x1 = 0.224	870
